The values that follow are results of earlier work, collected in US20250381182A1, “ALDH-2 INHIBITOR COMPOUNDS AND METHODS OF USE” (Amygdala Neurosciences, Inc., priority 2024, published 2025).

Molecules are shown by their SMILES.

The conditions of the series: O'Malley et al. 2021, Phase 2 study of ANS-6637; cited from earlier work.

Consider `O=C(NCc1ccc(-c2cc[nH]c(=O)c2)cc1)c1c(Cl)cccc1Cl` [2,6-dichloro-N-[4-(2-oxo-1,2-dihydro-pyridin-4-yl)-benzyl]-benzamide], for which the hepatotoxicity in humans result is on record as “high levels of hepatotoxicity”.
